Reference: patent US9511073B2, “Aromatic amides and uses thereof” (TAXIS Pharmaceuticals, Inc., priority 2011, dated 2016)
In brackets after ≈: the same amount, converted by molar mass. Where two headings read alike, the source gives them in different places.

What was measured:
[1] = tested on: Staphylococcus aureus (Isolate ID ATCC 29213); assay: Bacterial assay: MIC by broth microdilution or agar dilution (CLSI), S. aureus ATCC 29213; type: cell-based; conditions: Staphylococcus aureus
Method in brief: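 Activity is binned (A ≤0.25 μg/mL; B >0.25–1.0; C >1.0–16; D >16 μg/mL) from MICs determined per CLSI by broth microdilution or agar dilution, on S. aureus ATCC 29213 plus an FtsZ-G196A mutant strain.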

[2] = tested on: FtsZ-G196A Staphylococcus aureus (Isolate ID GG/190723/sa/1.2); assay: Bacterial assay: MIC, FtsZ G196A mutant strain; type: cell-based; conditions: read-out: MIC (μg/mL) G196A mutant strain
Experimental: Compounds are tested for antimicrobial activity by susceptibility testing in liquid or on solid media. Minimum inhibitory concentrations (MICs) for compounds against each strain are determined by the broth microdilution or agar dilution method according to the guidelines of the Clinical Laboratories and Standards Institute, formerly the National Committee for Clinical Laboratory Standards (Clinical Laboratories and Standards Institute. Methods for Dilution Antimicrobial Susceptibility Tests for Bacteria That Grow Aerobically; Approved Standard—Seventh Edition. Document M7-A7. CLSI, Wayne, Pa., 2006; Clinical Laboratories and Standards Institute). The bacterial strains tested include S. aureus (Staphylococcus aureus (Isolate ID ATCC 29213)) and an FtsZ mutant of this isolate (FtsZ-G196A Staphylococcus aureus (Isolate ID GG/190723/sa/1.2)). Compound MICs were determined to be in the following activity ranges “A” activity≦0.25 μg/mL; “B” activity>0.25 μg/mL-1.0 μg/mL; “C” activity>1.0 μg/mL-16 μg/mL; “D” activity>16 μg/mL and ND=not determined. The bracketed entries indicate entantiomer(s) and their activity.
The comparative activity of selected compounds having a bromo-substituted oxazole against their corresponding non-brominated analogues is shown in Table 4.

[3] = Pharmacokinetic assay: plasma concentration by LC/MS/MS after single intravenous or peroral dose of 3 mg/kg; type: in vivo; conditions: 3 mg/kg IV dosing in mice
Experimental: The pharmacokinetic profiles of selected comparator compounds A-N in Table 6 and compounds of the invention were determined by measuring the compound concentration in plasma by LC/MS/MS following a single intravenous or peroral administration of the compounds at a dose of 3 mg/kg. The concentrations described are the mean plasma concentrations at each time point from three animals. Intravenous dose formulation was administered as a single bolus dose through the tail vein. Oral dose formulation was administered to animals by an oral gavage needle. In both cases the dose volume was 5.0 mL/kg. Blood was collected from anesthetized mice through a capillary guided into the retro-orbital plexus. The collected blood was centrifuged to obtain plasma and the compounds extracted into methanol prior to determining the compound concentration by LC/MS/MS. The results are shown graphically in FIG. 1 and for the AUC and CL parameters in Table 6.

[4] = ATCC29213, read-out: S. aureus MIC (μg/mL) Activity Range, S. aureus (ATCC29213)

| Compound | MIC [1, 4] | clearance ([3]; mouse, plasma) | AUC ([3]; mouse, plasma, read-out: AUC) | also measured |
| --- | --- | --- | --- | --- |
| COc1ccc(-c2nc(C(C)Oc3ccc(F)c(C(N)=O)c3F)oc2Br)cc1 (racemic) [Compound 5] | 0.25 to 1 µg/mL (≈ 0.552 to 2.21 µM) |  |  | MIC ([1]; ATCC29213, read-out: MIC (μg/mL) S. aureus (ATCC29213), Table 5, racemate and enantiomers): 1 µg/mL (≈ 2.21 µM); MIC [2]: 32 µg/mL (≈ 70.6 µM) |
| NC(=O)c1c(F)ccc(OCc2nc3cc(-c4ccccc4)cnc3s2)c1F [B] |  |  |  | AUC [3]: 500 ng·h/mL; CL [3]: 91 mL/min/kg |
| CC(Oc1ccc(F)c(C(N)=O)c1F)c1nc(-c2ccc(OC(F)(F)F)cc2)c(Br)o1 (stereo not shown) [Compound 16, 3-(1-(5-bromo-4-(4-(trifluoromethoxy)phenyl)oxazol-2-yl)ethoxy)-2,6-difluorobenzamide] | 0.25 to 1 µg/mL (≈ 0.493 to 1.97 µM) |  |  | AUC [3]: 1400 ng·h/mL; CL [3]: 36 mL/min/kg |
| CC(Oc1ccc(F)c(C(N)=O)c1F)c1nc(-c2ccc(OC(F)(F)F)cc2)c(Cl)o1 (stereo not shown) [Compound 21, 3-(1-(5-chloro-4-(4-(trifluoromethoxy)phenyl)oxazol-2-yl)ethoxy)-2,6-difluorobenzamide] | < 0.25 µg/mL |  |  | AUC [3]: 1600 ng·h/mL; CL [3]: 31 mL/min/kg |
| CC(Oc1ccc(F)c(C(N)=O)c1F)c1nc(-c2ccc(C(F)(F)F)cc2)c(Br)o1 (stereo not shown) [Compound 27, 3-(1-(5-bromo-4-(4-(trifluoromethyl)phenyl)oxazol-2-yl)ethoxy)-2,6-difluorobenzamide] | < 0.25 µg/mL |  |  | AUC [3]: 2200 ng·h/mL; CL [3]: 22 mL/min/kg |
| NC(=O)c1c(F)ccc(O[C@H](COC(=O)CCC(=O)O)c2nc(-c3ccc(C(F)(F)F)cc3)c(Br)o2)c1F [Compound 181, (R)-4-(2-(5-bromo-4-(4-(trifluoromethyl)phenyl)oxazol-2-yl)-2-(3-carbamoyl-2,4-difluorophenoxy)ethoxy)-4-oxobutanoic acid] | 1 to 16 µg/mL (≈ 1.65 to 26.3 µM) | 16 mL/min/kg | 3000 ng·h/mL |  |
| NC(=O)c1c(F)ccc(OC(CNC(=O)c2cccnc2)c2nc(-c3ccc(C(F)(F)F)cc3)co2)c1F (stereo not shown) [Compound 293, N-(2-(3-carbamoyl-2,4-difluorophenoxy)-2-(4-(4-(trifluoromethyl)phenyl)oxazol-2-yl)ethyl)nicotinamide] | > 16 µg/mL |  |  |  |
| NC(=O)c1c(F)ccc(OC(CNC(=O)c2ccccn2)c2nc(-c3ccc(C(F)(F)F)cc3)co2)c1F (stereo not shown) [Compound 294, N-(2-(3-carbamoyl-2,4-difluorophenoxy)-2-(4-(4-(trifluoromethyl)phenyl)oxazol-2-yl)ethyl)picolinamide] | > 16 µg/mL |  |  |  |
| NC(=O)c1c(F)ccc(OC(CNC(=O)c2cccnc2)c2nc(-c3ccc(C(F)(F)F)cc3)c(Br)o2)c1F (stereo not shown) [Compound 295, N-(2-(5-bromo-4-(4-(trifluoromethyl)phenyl)oxazol-2-yl)-2-(3-carbamoyl-2,4-difluorophenoxy)ethyl)nicotinamide] | 0.25 to 1 µg/mL (≈ 0.409 to 1.64 µM) |  |  |  |
| NC(=O)c1c(F)ccc(OC(CNC(=O)c2ccccn2)c2nc(-c3ccc(C(F)(F)F)cc3)c(Br)o2)c1F (stereo not shown) [Compound 296, N-(2-(5-bromo-4-(4-(trifluoromethyl)phenyl)oxazol-2-yl)-2-(3-carbamoyl-2,4-difluorophenoxy)ethyl)picolinamide] | < 0.25 µg/mL |  |  |  |
| C[C@@H](O)[C@@H](Oc1ccc(F)c(C(N)=O)c1F)c1nc(-c2ccc(OC(F)F)cc2)c(Br)o1 [Compound 297, 3-((1R,2R)-1-(5-bromo-4-(4-(difluoromethoxy)phenyl)oxazol-2-yl)-2-hydroxypropoxy)-2,6-difluorobenzamide] | < 0.25 µg/mL |  |  |  |
| NC(=O)c1c(F)ccc(OC(CNC(=O)Cc2cccnc2)c2nc(-c3ccc(C(F)(F)F)cc3)c(Br)o2)c1F (stereo not shown) [Compound 298, 3-(1-(5-bromo-4-(4-(trifluoromethyl)phenyl)oxazol-2-yl)-2-(2-(pyridin-3-yl)acetamido)ethoxy)-2,6-difluorobenzamide] | 1 to 16 µg/mL (≈ 1.6 to 25.6 µM) |  |  |  |
| C[C@@H](Oc1cccc(C(N)=O)c1F)c1nc(-c2ccc(C(F)(F)F)cc2)c(Br)o1 [Compound 299] | 1 to 16 µg/mL (≈ 2.11 to 33.8 µM) |  |  |  |
| C[C@H](O)[C@@H](Oc1ccc(F)c(C(N)=O)c1F)c1nc(-c2ccc(OC(F)F)cc2)c(Br)o1 [Compound 300, 3-((1R,2S)-1-(5-bromo-4-(4-(difluoromethoxy)phenyl)oxazol-2-yl)-2-hydroxypropoxy)-2,6-difluorobenzamide] | < 0.25 µg/mL |  |  |  |
| COCCOCC(=O)NCC(Oc1ccc(F)c(C(N)=O)c1F)c1nc(-c2ccc(C(F)(F)F)cc2)c(Br)o1 (stereo not shown) [Compound 301, 3-(1-(5-bromo-4-(4-(trifluoromethyl)phenyl)oxazol-2-yl)-2-(2-(2-methoxyethoxy)acetamido)ethoxy)-2,6-difluorobenzamide] | 1 to 16 µg/mL (≈ 1.61 to 25.7 µM) |  |  |  |
| NC(=O)c1c(F)ccc(OC(CNC(=O)CCC(=O)O)c2nc(-c3ccc(C(F)(F)F)cc3)c(Br)o2)c1F (stereo not shown) [Compound 302, 4-((2-(5-bromo-4-(4-(trifluoromethyl)phenyl)oxazol-2-yl)-2-(3-carbamoyl-2,4-difluorophenoxy)ethyl)amino)-4-oxobutanoic acid] | 1 to 16 µg/mL (≈ 1.65 to 26.4 µM) |  |  |  |

| Compound | MIC [1, 4] | clearance ([3]; mouse, plasma) | AUC ([3]; mouse, plasma, read-out: AUC) | also measured |
| --- | --- | --- | --- | --- |
| COCc1oc([C@@H](CO)Oc2ccc(F)c(C(N)=O)c2F)nc1-c1ccc(OC)cc1 [Compound 304B, (R)-2,6-difluoro-3-(2-hydroxy-1-(5-(methoxymethyl)-4-(4-methoxyphenyl)oxazol-2-yl)ethoxy)benzamide] | 1 to 16 µg/mL (≈ 2.3 to 36.8 µM) |  |  |  |
| CCc1oc(-c2ccc(OC)cc2)nc1C(CO)Oc1ccc(F)c(C(N)=O)c1F (stereo not shown) [Compound 306, 3-(1-(5-ethyl-2-(4-methoxyphenyl)oxazol-4-yl)-2-hydroxyethoxy)-2,6-difluorobenzamide] | 1 to 16 µg/mL (≈ 2.39 to 38.2 µM) |  |  |  |
| NC(=O)c1c(F)ccc(OCc2nc(-c3ccc(Cl)cc3)no2)c1F [Compound A, 3-((3-(4-chlorophenyl)-1,2,4-oxadiazol-5-yl)methoxy)-2,6-difluorobenzamide] |  | 52 mL/min/kg | 900 ng·h/mL |  |
| Cc1ccc(-c2csc(COc3ccc(F)c(C(N)=O)c3F)n2)cn1 [Compound C, 2,6-difluoro-3-((4-(6-methylpyridin-3-yl)thiazol-2-yl)methoxy)benzamide] |  | 130 mL/min/kg | 400 ng·h/mL |  |
| NC(=O)c1c(F)ccc(OCc2nc(-c3ccc(Cl)nc3)cs2)c1F [Compound F, 3-((4-(6-chloropyridin-3-yl)thiazol-2-yl)methoxy)-2,6-difluorobenzamide] |  | 139 mL/min/kg | 400 ng·h/mL |  |
| CCCc1oc(COc2ccc(F)c(C(N)=O)c2F)nc1-c1cccc(O)c1 [Compound M, 2,6-difluoro-3-((4-(3-hydroxyphenyl)-5-propyloxazol-2-yl)methoxy)benzamide] |  | 369 mL/min/kg | 100 ng·h/mL |  |
| C=CCc1oc(COc2ccc(F)c(C(N)=O)c2F)nc1-c1cccc(O)c1 [Compound N, 3-((5-allyl-4-(3-hydroxyphenyl)oxazol-2-yl)methoxy)-2,6-difluorobenzamide] |  | 270 mL/min/kg | 200 ng·h/mL |  |
| COc1ccc(-c2nc(COc3ccc(F)c(C(N)=O)c3F)sc2-c2ccc(N(C)C)nc2)cc1 [D, 3-((5-(6-(dimethylamino)pyridin-3-yl)-4-(4-methoxyphenyl)thiazol-2-yl)methoxy)-2,6-difluorobenzamide] |  | 55 mL/min/kg | 900 ng·h/mL |  |
| CCOc1cnc2sc(COc3ccc(F)c(C(N)=O)c3F)nc2c1 [E] |  |  |  | AUC [3]: 200 ng·h/mL; CL [3]: 203 mL/min/kg |
| COc1cnc(-c2csc(COc3ccc(F)c(C(N)=O)c3F)n2)cn1 [G, 2,6-difluoro-3-((4-(5-methoxypyrazin-2-yl)thiazol-2-yl)methoxy)benzamide] |  | 82 mL/min/kg | 600 ng·h/mL |  |
| NC(=O)c1c(F)ccc(OCc2nc(-c3cnc(Cl)nc3)cs2)c1F [H, 3-((4-(2-chloropyrimidin-5-yl)thiazol-2-yl)methoxy)-2,6-difluorobenzamide] |  | 173 mL/min/kg | 300 ng·h/mL |  |
| CCc1oc(COc2ccc(F)c(C(N)=O)c2F)nc1-c1ccc(OC)cc1 [I, 3-((5-ethyl-4-(4-methoxyphenyl)oxazol-2-yl)methoxy)-2,6-difluorobenzamide] |  |  |  | AUC [3]: 200 ng·h/mL; CL [3]: 319 mL/min/kg |
| COc1ncc(-c2csc(COc3ccc(F)c(C(N)=O)c3F)n2)s1 [J, 2,6-difluoro-3-((2′-methoxy-4,5′-bithiazol-2-yl)methoxy)benzamide] |  | 180 mL/min/kg | 300 ng·h/mL |  |
| CCCc1oc(COc2ccc(F)c(C(N)=O)c2F)nc1-c1ccc(Cl)cc1 [K] |  |  |  | AUC [3]: 400 ng·h/mL; CL [3]: 137 mL/min/kg |
| Cc1noc(CCc2csc(COc3ccc(F)c(C(N)=O)c3F)n2)n1 [L, 2,6-difluoro-3-((4-(2-(3-methyl-1,2,4-oxadiazol-5-yl)ethyl)thiazol-2-yl)methoxy)benzamide] |  | 59 mL/min/kg | 800 ng·h/mL |  |
